System: 422866-222-R5-J1-PDC complex spheroid viability
Assay: Anticancer human tumor 422866-222-R5-J1-PDC patient-derived pancreatic adenocarcinoma cell line growth inhibition [POLQ]
Conditions: for IC50: curve of first compound; for viability, T/C: stronger effect = lower value
Summary of the method: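 PDC + HUVEC + MSC complex spheroids; POLQ inhibitors ± partner drugs; top conc. at/near clinical Cmax, else 10 microM (SN-38 1 microM), half-log dilutions; 37 degrees C, 5% CO2.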

[1] = second compound 0.0316 µM, first compound 0.0316 µM
[2] = second compound 0.0316 µM, first compound 0.1 µM
[3] = second compound 0.1 µM, first compound 0.0316 µM
[4] = second compound 0.1 µM, first compound 0.1 µM
[5] = second compound 0.316 µM, first compound 0.0316 µM
[6] = second compound 0.316 µM, first compound 0.1 µM
[7] = second compound 1 µM, first compound 0.0316 µM
[8] = second compound 1 µM, first compound 0.1 µM
[9] = second compound 3.16 µM, first compound 0.0316 µM
[10] = second compound 3.16 µM, first compound 0.1 µM
[11] = second compound 10 µM, first compound 0.0316 µM
[12] = second compound 10 µM, first compound 0.1 µM
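Further: spheroids exposed to compounds for one week before readout.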
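Wherever viability, T/C is given: percent of DMSO vehicle wells luminescence so 100% = untreated viability.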

Compound: COc1ccc([C@@H](O)c2cc(-c3ncnc4cc(N5CCOCC5)ccc34)c(F)cc2Cl)nn1 + Nc1ccc(C#CCN(C(=O)Cc2ncc(C(F)(F)F)cc2C(F)(F)F)c2ccc(F)cc2)nn1
- IC50 (second compound 0.0316 µM): 1510 nM
- IC50 (second compound 0.1 µM): 2570 nM
- IC50 (second compound 0.316 µM): 2740 nM
- IC50 (second compound 1 µM): 1930 nM
- IC50 (second compound 3.16 µM): 1280 nM
- IC50 (second compound 10 µM): 1590 nM
- viability, T/C [1]: 81.2%
- viability, T/C [2]: 89.7%
- viability, T/C (second compound 0.0316 µM, first compound 0.316 µM): 70.9%
- viability, T/C (second compound 0.0316 µM, first compound 1 µM): 55.3%
- viability, T/C (second compound 0.0316 µM, first compound 3.16 µM): 42.4%
- viability, T/C (second compound 0.0316 µM, first compound 10 µM): 34.8%
- viability, T/C [3]: 104%
- viability, T/C [4]: 81.8%
- viability, T/C (second compound 0.1 µM, first compound 0.316 µM): 75.1%
- viability, T/C (second compound 0.1 µM, first compound 1 µM): 59.8%
- viability, T/C (second compound 0.1 µM, first compound 3.16 µM): 46.2%
- viability, T/C (second compound 0.1 µM, first compound 10 µM): 39.2%
- viability, T/C [5]: 110%
- viability, T/C [6]: 88.5%
- viability, T/C (second compound 0.316 µM, first compound 0.316 µM): 73.1%
- viability, T/C (second compound 0.316 µM, first compound 1 µM): 70.6%
- viability, T/C (second compound 0.316 µM, first compound 3.16 µM): 46.2%
- viability, T/C (second compound 0.316 µM, first compound 10 µM): 33.1%
- viability, T/C [7]: 94.2%
- viability, T/C [8]: 87.4%
- viability, T/C (second compound 1 µM, first compound 0.316 µM): 79.8%
- viability, T/C (second compound 1 µM, first compound 1 µM): 62.6%
- viability, T/C (second compound 1 µM, first compound 3.16 µM): 40.2%
- viability, T/C (second compound 1 µM, first compound 10 µM): 29.4%
- viability, T/C [9]: 95.9%
- viability, T/C [10]: 89.9%
- viability, T/C (second compound 3.16 µM, first compound 0.316 µM): 72.9%
- viability, T/C (second compound 3.16 µM, first compound 1 µM): 49.1%
- viability, T/C (second compound 3.16 µM, first compound 3.16 µM): 47.6%
- viability, T/C (second compound 3.16 µM, first compound 10 µM): 34.6%
- viability, T/C [11]: 110%
- viability, T/C [12]: 100%
- viability, T/C (second compound 10 µM, first compound 0.316 µM): 82.5%
- viability, T/C (second compound 10 µM, first compound 1 µM): 60.3%
- viability, T/C (second compound 10 µM, first compound 3.16 µM): 35.1%
- viability, T/C (second compound 10 µM, first compound 10 µM): 31.4%

Compound: Cn1ncnc1[C@H]1c2n[nH]c(=O)c3cc(F)cc(c23)N[C@@H]1c1ccc(F)cc1 + Nc1ccc(C#CCN(C(=O)Cc2ncc(C(F)(F)F)cc2C(F)(F)F)c2ccc(F)cc2)nn1
- IC50 (second compound 0.0316 µM): > 100 nM
- IC50 (second compound 0.1 µM): > 100 nM
- IC50 (second compound 0.316 µM): > 100 nM
- IC50 (second compound 1 µM): > 100 nM
- IC50 (second compound 3.16 µM): > 100 nM
- IC50 (second compound 10 µM): > 100 nM
- viability, T/C (second compound 0.0316 µM, first compound 0.000316 µM): 91.5%
- viability, T/C (second compound 0.0316 µM, first compound 0.001 µM): 115%
- viability, T/C (second compound 0.0316 µM, first compound 0.00316 µM): 80.7%
- viability, T/C (second compound 0.0316 µM, first compound 0.01 µM): 104%
- viability, T/C [1]: 88.3%
- viability, T/C [2]: 75.7%
- viability, T/C (second compound 0.1 µM, first compound 0.000316 µM): 101%
- viability, T/C (second compound 0.1 µM, first compound 0.001 µM): 106%
- viability, T/C (second compound 0.1 µM, first compound 0.00316 µM): 110%
- viability, T/C (second compound 0.1 µM, first compound 0.01 µM): 85.2%
- viability, T/C [3]: 81.7%
- viability, T/C [4]: 74.1%
- viability, T/C (second compound 0.316 µM, first compound 0.000316 µM): 112%
- viability, T/C (second compound 0.316 µM, first compound 0.001 µM): 108%
- viability, T/C (second compound 0.316 µM, first compound 0.00316 µM): 86.1%
- viability, T/C (second compound 0.316 µM, first compound 0.01 µM): 91.6%
- viability, T/C [5]: 92.7%
- viability, T/C [6]: 75.2%
- viability, T/C (second compound 1 µM, first compound 0.000316 µM): 109%
- viability, T/C (second compound 1 µM, first compound 0.001 µM): 93.6%
- viability, T/C (second compound 1 µM, first compound 0.00316 µM): 98.8%
- viability, T/C (second compound 1 µM, first compound 0.01 µM): 98.8%
- viability, T/C [7]: 77%
- viability, T/C [8]: 87.9%
- viability, T/C (second compound 3.16 µM, first compound 0.000316 µM): 115%
- viability, T/C (second compound 3.16 µM, first compound 0.001 µM): 111%
- viability, T/C (second compound 3.16 µM, first compound 0.00316 µM): 98.1%
- viability, T/C (second compound 3.16 µM, first compound 0.01 µM): 94.9%
- viability, T/C [9]: 89.1%
- viability, T/C [10]: 92.4%
- viability, T/C (second compound 10 µM, first compound 0.000316 µM): 101%
- viability, T/C (second compound 10 µM, first compound 0.001 µM): 111%
- viability, T/C (second compound 10 µM, first compound 0.00316 µM): 108%
- viability, T/C (second compound 10 µM, first compound 0.01 µM): 95.7%
- viability, T/C [11]: 86.1%
- viability, T/C [12]: 77.9%
